# Values joined by “and” are separate entries in the source; they are usually repeats but may differ in a detail not shown here. Equal entries are not always repeated. Where two headings read alike, the source gives them in different places.
# What was measured:
# [1] = design: method as in PMID 24254882; details: cited from earlier work
# [2] = test system: cancer cells (HL-60, MCF-7, HCT116, A549) and non-cancerous cells (H9c2, 3T3); assay: MTT cytotoxicity assay, summary over the cell line panel; assay type: cell-based; details: HL-60, MCF-7, HCT116, A549; 72 h; read-out: IC50, range over cancer cells
# Method: (§1) For cytotoxicity experiments, cancer cells were seeded at a density of 5,000 (MCF-7), 10,000 (HL-60) or 2,000 cells/well (HCT116 and A549) in 96-well plates (TPP) for 24 h/37°C prior to the addition of examined agents. The non-cancerous cells, 3T3 and H9c2 cells, were cultured for 24 h/37°C in 96-well plates at a density of 10,000 cells/well, the medium was then changed to serum- and pyruvate-free DMEM (Sigma-Aldrich) and incubated with the cells for another 24 h/37°C. The cytotoxic effects of Bp4eT and its metabolites were studied at different concentrations after a 72 h/37°C incubation. In order to aid the dissolution of the lipophilic ligands, 0.1% dimethyl sulfoxide (v/v) (DMSO; Sigma-Aldrich) was present in the culture medium of all groups. At this concentration, DMSO had no effect on cellular proliferation or viability.
# (§2) The viability of cells were determined using an MTT assay (Sigma-Aldrich) according to previously established methods. The optical density of soluble MTT was measured at λ = 570 nm, subtracting the λ = 690 nm background using a Tecan Infinite 200M plate reader (Tecan Group, Männedorf, Switzerland). The viability or proliferation of experimental groups was expressed as a percentage of the untreated controls (100%).
# (§3) SigmaStat for Windows 3.5 (Systat Software, San Jose, CA, USA) statistical software package was utilized to analyze results. The data are expressed as the mean ± SD of a given number of experiments. Statistical significance was determined using a one-way ANOVA with a Bonferroni post-hoc test or Student’s t-test. The results were considered to be statistically significant when p < 0.05. The IC50 values were calculated using CalcuSyn 2.0 software (Biosoft, Cambridge, UK). Cell cycle analysis was evaluated using MultiCycle AV Software (Phoenix Flow Systems, San Diego, CA, USA).
# [3] = test system: H9c2 cardiomyoblasts; assay: MTT cytotoxicity assay, H9c2 cells; assay type: cell-based, rat; details: for IC50: MTT
# Method: as §1, §2, §3
# [4] = test system: MCF-7 human breast adenocarcinoma cells; assay: MTT cytotoxicity assay, MCF-7 cells; assay type: cell-based; details: for IC50: MTT, read-out: IC50
# Method: as §1, §2, §3
structure (smiles),measurement,setting,value
"CCN=CNN=C(c1ccccc1)c1ccccn1 [Bp4eA, N ^3-ethyl-N ^1-[phenyl(pyridin-2-yl)methylene]formamidrazone]",Highest concentration in plasma,"[1]; rat plasma, after 300 min post i.v. administration of Bp4eT",< 1 µM
same,Exposure relative to that of the parent compound,"[1]; rats, intravenous administration of Bp4eT",20%
same,IC50,[2],52 to 207 µM
same,"MTT, relative to control (0 = 100)","[3]; H9c2, 10 000 b/j, 1 μM, průměr (mean), sheet Bp4eA",96.26
same,"MTT, relative to control (0 = 100)","[3]; H9c2, 10 000 b/j, 1 μM, single experiment (date), sheet Bp4eA",96.9641 and 92.8493 and 97.4859 and 95.7195 and 98.2981
same,"MTT, relative to control (0 = 100)","[3]; H9c2, 10 000 b/j, 3 μM, průměr (mean), sheet Bp4eA",96.27
same,"MTT, relative to control (0 = 100)","[3]; H9c2, 10 000 b/j, 3 μM, single experiment (date), sheet Bp4eA",100.784 and 93.7843 and 97.6949 and 91.6948 and 97.3803
same,"MTT, relative to control (0 = 100)","[3]; H9c2, 10 000 b/j, 10 μM, průměr (mean), sheet Bp4eA",95.56
same,"MTT, relative to control (0 = 100)","[3]; H9c2, 10 000 b/j, 10 μM, single experiment (date), sheet Bp4eA",96.5102 and 92.1411 and 95.5166 and 98.0809
same,"MTT, relative to control (0 = 100)","[3]; H9c2, 10 000 b/j, 30 μM, průměr (mean), sheet Bp4eA",93.18
same,"MTT, relative to control (0 = 100)","[3]; H9c2, 10 000 b/j, 30 μM, single experiment (date), sheet Bp4eA",94.6024 and 93.1446 and 95.1622 and 88.8218 and 94.1801
same,"MTT, relative to control (0 = 100)","[3]; H9c2, 10 000 b/j, 100 μM, průměr (mean), sheet Bp4eA",76.55
same,"MTT, relative to control (0 = 100)","[3]; H9c2, 10 000 b/j, 100 μM, single experiment (date), sheet Bp4eA",76.7908 and 72.9908 and 82.9441 and 73.781 and 76.2525
same,"MTT, relative to control (0 = 100)","[3]; H9c2, 10 000 b/j, 300 μM, průměr (mean), sheet Bp4eA",66.55
same,"MTT, relative to control (0 = 100)","[3]; H9c2, 10 000 b/j, 300 μM, single experiment (date), sheet Bp4eA",71.4763 and 63.147 and 62.7404 and 68.8465
same,"MTT, relative to control (0 = 100)","[3]; H9c2, 10 000 b/j, 1000 μM, průměr (mean), sheet Bp4eA",23.16
same,"MTT, relative to control (0 = 100)","[3]; H9c2, 10 000 b/j, 1000 μM, single experiment (date), sheet Bp4eA",17.0741 and 23.4615 and 18.1134 and 33.9931
same,IC50,"[3]; H9c2, 10 000 b/j, single experiment (date), sheet Bp4eA, read-out: IC50 měřené",510 µM and 315 µM and 533 µM
same,IC50,"[3]; Rattus norvegicus, H9c2, 72 h, H9c2, 72 h/37°C, mean ± SD, n ≥ 4, read-out: IC50",416 ± 122 µM
same,IC50,"[3]; Rattus norvegicus, H9c2, H9c2, 10 000 b/j, průměr (mean), sheet Bp4eA, read-out: IC50 měřené",416 µM
same,IC50,"[3]; Rattus norvegicus, H9c2, H9c2, 10 000 b/j, single experiment (date), sheet Bp4eA, read-out: IC50 měřené",306 µM
same,"Therapeutic index, IC50 non-cancerous cells / IC50 neoplastic cells",[4]; 3T3/MCF-7,17.3
same,"Therapeutic index, IC50 non-cancerous cells / IC50 neoplastic cells",[4]; H9c2/MCF-7,7.0
same,IC50,"[4]; Homo sapiens, MCF7, 72 h, MCF-7, 72 h/37°C, mean ± SD, n ≥ 4",59.4 ± 8.9 µM
same,IC50,"[4]; Homo sapiens, MCF7, MCF-7, 5 000 b/j, průměr (mean)",59.4 µM
same,IC50,"[4]; Homo sapiens, MCF7, MCF-7, 5 000 b/j, single experiment (by date)",69.9 µM
same,IC50,"[4]; MCF-7, 5 000 b/j, single experiment (by date)",48.9 µM and 62.4 µM and 56.6 µM
same,"MTT, value relative to 0 μM = 100","[4]; MCF-7, 5 000 b/j, koncentrace 1 μM, průměr (mean)",93.04
same,"MTT, value relative to 0 μM = 100","[4]; MCF-7, 5 000 b/j, koncentrace 1 μM, single experiment (by date)",90.8485 and 99.965 and 93.7506 and 93.1688 and 87.4567
same,"MTT, value relative to 0 μM = 100","[4]; MCF-7, 5 000 b/j, koncentrace 3 μM, průměr (mean)",85.43
same,"MTT, value relative to 0 μM = 100","[4]; MCF-7, 5 000 b/j, koncentrace 3 μM, single experiment (by date)",93.874 and 91.0261 and 71.3771
same,"MTT, value relative to 0 μM = 100","[4]; MCF-7, 5 000 b/j, koncentrace 10 μM, průměr (mean)",84.39
same,"MTT, value relative to 0 μM = 100","[4]; MCF-7, 5 000 b/j, koncentrace 10 μM, single experiment (by date)",92.9139 and 90.5956 and 78.0175 and 76.0291
same,"MTT, value relative to 0 μM = 100","[4]; MCF-7, 5 000 b/j, koncentrace 30 μM, průměr (mean)",81.82
same,"MTT, value relative to 0 μM = 100","[4]; MCF-7, 5 000 b/j, koncentrace 30 μM, single experiment (by date)",88.8876 and 87.4579 and 79.9984 and 70.9265
same,"MTT, value relative to 0 μM = 100","[4]; MCF-7, 5 000 b/j, koncentrace 100 μM, průměr (mean)",26.24
same,"MTT, value relative to 0 μM = 100","[4]; MCF-7, 5 000 b/j, koncentrace 100 μM, single experiment (by date)",35.9762 and 29.29 and 21.3398 and 22.2541 and 22.3478
same,"MTT, value relative to 0 μM = 100","[4]; MCF-7, 5 000 b/j, koncentrace 300 μM, průměr (mean)",16.91
same,"MTT, value relative to 0 μM = 100","[4]; MCF-7, 5 000 b/j, koncentrace 300 μM, single experiment (by date)",19.6559 and 17.473 and 16.628 and 13.8677
same,"MTT, value relative to 0 μM = 100","[4]; MCF-7, 5 000 b/j, koncentrace 1000 μM, průměr (mean)",14.02
same,"MTT, value relative to 0 μM = 100","[4]; MCF-7, 5 000 b/j, koncentrace 1000 μM, single experiment (by date)",14.4001 and 13.0033 and 14.9518 and 13.7358

# Source: PMC4604124, “In Vitro Characterization of the Pharmacological Properties of the Anti-Cancer Chelator, Bp4eT, and Its Phase I Metabolites” (PLoS ONE, 2015)
